How the values were obtained:
Format in all cases: functional, cell-based
PBMC [1] = assay: Antiinflammatory activity in human PBMC assessed as inhibition of LPS-induced IL-1beta expression pretreated 1 hr before LPS challenge followed by incubated for 16 hrs by flow cytometry
PBMC [2] = assay: Antiinflammatory activity in human PBMC assessed as inhibition of LPS-induced TNFalpha expression pretreated 1 hr before LPS challenge followed by incubated for 16 hrs by flow cytometry
PBMC [3] = assay: Antiinflammatory activity in human PBMC assessed as inhibition of LPS-induced IL-8 expression pretreated 1 hr before LPS challenge followed by incubated for 16 hrs by flow cytometry

SMILES: C[C@]12CCC3=C(CC[C@@H]4[C@](C)(C(=O)O)CCC[C@@]34C)[C@H]1OC[C@@H]2O
- IC50 (PBMC [1]): > 10000 nM
- IC50 (PBMC [2]): > 10000 nM
- IC50 (PBMC [3]): 1 nM

SMILES: C=C1C[C@@]23CC[C@H]4[C@@](C)(CCC[C@@]4(C)C(=O)O)[C@@H]2CC[C@@H]1C3 [KAURENOIC ACID]
- IC50 (PBMC [1]): 10 nM
- IC50 (PBMC [2]): 2 nM
- IC50 (PBMC [3]): 7700 nM

SMILES: Cc1cc(O)c2c(c1O)C(=O)C[C@@H]1[C@](C)(C(=O)O)CCC[C@@]21C
- IC50 (PBMC [1]): > 10000 nM
- IC50 (PBMC [2]): 8 nM
- IC50 (PBMC [3]): > 10000 nM

SMILES: C[C@@]12CCC[C@@](C)(C(=O)O)[C@H]1CC(=O)[C@]13CC(=O)[C@H](CC[C@H]12)C3
- IC50 (PBMC [1]): 1 nM
- IC50 (PBMC [2]): 2 nM
- IC50 (PBMC [3]): > 10000 nM

SMILES: COC(=O)[C@]1(C)CCC[C@@]2(C)[C@@H]3CC[C@@H]4C[C@]3(C=C4C=O)CC[C@@H]21
- IC50 (PBMC [1]): 5 nM
- IC50 (PBMC [2]): 400 nM
- IC50 (PBMC [3]): 6 nM

SMILES: C[C@@]12CCC[C@@](C)(C(=O)O)[C@H]1CC[C@]13C=C(CO)[C@H](CC[C@H]12)C3
- IC50 (PBMC [1]): 800 nM
- IC50 (PBMC [2]): 10 nM
- IC50 (PBMC [3]): > 10000 nM

SMILES: C[C@@H]1C[C@H]2[C@@H]3CCC4=CC(=O)C=C[C@]4(C)[C@@]3(F)[C@@H](O)C[C@]2(C)[C@@]1(O)C(=O)CO [DEXAMETHASONE]
- IC50 (PBMC [1]): 8 nM
- IC50 (PBMC [2]): 2 nM
- IC50 (PBMC [3]): 9 nM

SMILES: C[C@@]12CCC[C@@](C)(C(=O)O)[C@H]1CC[C@@]13C[C@@H](CC[C@@H]21)[C@]1(CO)O[C@H]31
- IC50 (PBMC [1]): 100 nM
- IC50 (PBMC [2]): 60 nM
- IC50 (PBMC [3]): > 10000 nM

SMILES: C[C@@]12CCC[C@@](C)(C(=O)O)[C@H]1CC[C@]13C=C(C(=O)O)[C@H](CC[C@H]12)C3
- IC50 (PBMC [1]): 7500 nM
- IC50 (PBMC [2]): 2100 nM
- IC50 (PBMC [3]): 3 nM

SMILES: C[C@@]12CCC[C@@](C)(C(=O)O)[C@H]1CC(=O)[C@@]13C[C@@H](CC[C@H]12)[C@H](O)C3
- IC50 (PBMC [1]): 4 nM
- IC50 (PBMC [2]): 20 nM
- IC50 (PBMC [3]): > 10000 nM

SMILES: C=C[C@]1(C)C=C2C(=O)C[C@H]3[C@@](C)(CCC[C@@]3(C)C(=O)O)[C@@H]2CC1
- IC50 (PBMC [1]): 30 nM
- IC50 (PBMC [2]): 7 nM
- IC50 (PBMC [3]): > 10000 nM

SMILES: C[C@@]12CCC[C@@](C)(C(=O)O)[C@H]1CC(=O)[C@]13C[C@@H](CO)[C@H](CC[C@H]12)C3
- IC50 (PBMC [1]): 100 nM
- IC50 (PBMC [2]): 100 nM
- IC50 (PBMC [3]): > 10000 nM

— ChEMBL document CHEMBL3351835, “Anti-inflammatory diterpenoids from the root bark of Acanthopanax gracilistylus” (J Nat Prod, 2014)
